Data from patent US20240108753A1, “NUCLEIC ACID DELIVERY” (NUNTIUS THERAPEUTICS LIMITED, priority 2021, published 2024).
Blank lines part the entries; values can stand above or below the molecule they belong to. Where a SMILES comes first, the peptide text is derived from it. Where no end group is shown, it is not given here.

Key:
HeLa cells [1] = experiment: Cell viability after transfection (crystal violet); assay type: cell-based, human; settings: following transfection with DNA formulations
Method: Cell viability. Cells were transfected as described in ‘Transfection Procedure’. Following 24 hours of transfection, the medium was removed and the cells were washed twice with PBS. Afterwards, the cells were dried for 1 hour at room temperature (to allow permeation of the nuclear stain). Crystal violet solution (50 μL of stock solution supplied by Sigma-Aldrich) was added to the cells. They were incubated for 15 min at room temperature. After washing with distilled water (5 times), the cells were dried for 30 min at room temperature. Then, MeOH (200 μL) was added and the suspension was incubated for 1 hour at room temperature. The relative amount of the crystal violet stain retained by viable cells was determined by the absorbance of the methanolic solution at 550 nm.

[2] = cited from earlier work
[3] = tested on: clathrin mediated endocytosis, caveolae-mediated endocytosis and micropinocytosis; experiment: Endocytic experiments: transfection in the presence of uptake inhibitors; assay type: cell-based; settings: inhibitor added to G1,2,3-RL-D/D-DNA nanoparticle transfection
Method: The uptake mechanism of the composition of the invention was investigated. Chlorpromazine was used to inhibit clathrin mediated endocytosis. Genistein and Rottlerin were also used; these agents have been reported to inhibit caveolae-mediated endocytosis and micropinocytosis respectively.
Cells were preincubated with each inhibitor (chlorpromazine, genstein and rottlerin) for 30 min at 37 C.
Subsequently transfection was performed for a further 4 h at 37 C as described in the transfection section, in the presence of the inhibitor.

mice tissue [4] = experiment: In vivo luciferase DNA expression assays; settings: intravenous; DOTMA/DOPE w/w=1:1 to DNA; NP 20:1; 24 h
Method: Mice were injected with the dendrimers, lipid and DNA formulations, and tissues were isolated and snap-frozen for luciferase expression analysis 24 h and 48 h post intravenous and intramuscular injection respectively.
The tissues were homogenised with 1× reporter lysis buffer supplemented with Protease Inhibitors. Depending on the tissues, 1.5 to 3 times of the lysis buffer was used for the tissue homogenisation. Following the homogenisation, the lysates were centrifuged and the supernatants were used for assaying luciferase expression and protein content. The luciferase expression level was measured with a luminometer using a luciferase assay kit (Promega), following the manufacturer's instructions. The protein content was measured using a Biorad protein assay kit at 595 nm absorbance, following the manufacturer's instructions.
Mice were injected with the dendrimers, lipid and DNA formulation prepared for detection of luciferase expression post injection. Tissues were isolated and snap-frozen for luciferase expression analysis 24 h and 48 h post intravenous and intramuscular injection respectively.

[5] = Hydrodynamic size, polydispersity index and zeta potential of dendrimer, lipid and mRNA complexes; assay type: physicochemical; settings: DOTMA/DOPE w/w 10:1 to mRNA; for Hydrodynamic size: dendrimer, lipid and mRNA complexes
Method: The hydrodynamic size, polydispersity index and Zeta potential was determined for a set of the dendrimers disclosed in Tables 1 and 2.

C2C12 cells = experiment: In vitro DNA (luciferase reporter) delivery; assay type: cell-based; settings: N:P=8:1, DOTMA/DOPE w/w=1:1 to DNA
Excerpt: FIG. 25. In vitro DNA delivery to HeLa and C2C12 cells. HeLa cells were transfected with either DNA alone, G1,2,3-RL (N:P=5:1) and DOTMA/DOPE (at a w/w=1:1 to DNA) with DNA and G1,2,3-RL (N:P=5:1) and DOPG/DOPE (at a w/w=1:1 to DNA) with DNA (top panel). C2C12 cells (a muscle-derived cell line) were transfected with either DNA alone, polyethylenimine with DNA, G1,2-RL, 3-LR (N:P=8:1) and DOTMA/DOPE (at a w/w=1:1 to DNA) with DNA and NTX2 (N:P=8:1) and DOTMA/DOPE (at a w/w=1:1 to DNA) with DNA (bottom panel). The DNA used in both experiments encodes a luciferase reporter gene. NTX2 is a G1,2-RL, 3-LR dendrimer conjugated to a muscle targeting peptide ASSLINA ((LR)8(KRL)4(KRL)2KGSCGAASSLNIA(Acp)-NH2).
NTX2 is a G1,2-RL, 3-LR dendrimer conjugated to a muscle targeting peptide ASSLINA ((LR)8(KRL)4(KRL)2KGSCGAASSLNIA(Acp)-NH2).

mice tissue [6] = experiment: In vivo luciferase mRNA expression assays; settings: intravenous, NP 0.15:1, DOTMA/DOPE w/w=10:1 to mRNA, 6 hours
Method: Peptide dendrimers were diluted to a respective concentration and mixed with mRNA for a desired NP ratio such as NP=0.15:1 or 8:1. The solution was incubated in room temperature for 10 mins. Lipid such as DOTMA/DOPE was diluted to a respective concentration and mixed with the dendrimer-mRNA complexes for a desired NP ratio such as NP-4.7:1. The solution was incubated in room temperature for 20 mins. When required, the solution would be further diluted before injection.
All animal procedures conducted in our studies complied with UK laws and were inclusive of ethics approval. Female CD-1 mice (n=39) aged 6-8 weeks left to habituate for 1-week upon their arrival. All mice were weighed, and the formulations were delivered intravenously (100 μl) via the tail vein using 30G insulin syringes (BD biosciences).
All mice were imaged 6 hours post injection. BLI was performed using an IVIS Lumina II (Perkin Elmer) Imaging system. Mice were administered D-luciferin (30 mg/mL, XenoLight, Perkin Elmer) at a dose of 150 mg/kg. Mice were anaesthetised 6 mins after receiving D-luciferin in a chamber with 5% isoflurane and then placed on a heated imaging platform while being maintained on 2.5% isoflurane. Mice were imaged 10 min post administration of D-luciferin with an exposure time set to ensure the signal acquired was within an effective detection range (open filter, binning 8, f-stop 1). Bioluminescence signal was quantified by measuring photon flux (photons/s) in the defined region of interest (ROI) using the Living Image software (Perkin Elmer). Following in vivo whole-body imaging, the mice were euthanised, cardiac blood taken, and the tissues extracted for ex vivo imaging. Here each tissue was placed into individual wells of a 24-well imaging plate (black sided, Eppendorf) containing 0.3 mg/mL D-luciferin in PBS). The imaging plate was placed in the centre of imaging platform (Lumina II system) and signal was measured using the acquisition settings detailed above. Finally, the tissues were placed in storage vials and flash frozen in liquid nitrogen.
Mice were injected with a composition comprising DOTMA/DOPE, mRNA encoding luciferase and either G1,2,3-RL, (FIG. 10, top panel; the “G1,2,3-RL, lipid and mRNA formulation”) or G1,2-RL,3-LR (FIG. 10, bottom panel: the “G1,2,3-RL, lipid and mRNA formulation”). Each formulation was prepared and injected at an NP ratio of 8:1 and 0.15:1. Mice were prepared for detection of luciferase expression post injection.

immune cells = experiment: Immune cell targeting: uptake of labelled mRNA after intravenous injection (flow cytometry); assay type: in vivo, mice
Method: Fifteen 5-7-week-old female CD-1 mice (Charles River UK) were dosed with 1 mg/kg of either mRNA labelled with Alexa Fluor488 only or mRNA labelled with Alexa Fluor488 with NTX1 and DOTMA/DOPE or mRNA labelled with Alexa Fluor488 with G1,2-RL, 3-LR and DOTMA/DOPE or mRNA labelled with Alexa Fluor488 with G1,2-RL, 3-LR and DOTMA/DOPE, respectively, via intravenous injection using a dose volume of 5 ml/kg. Group 1 received vehicle and Group 5 received mRNA alone as controls. Mice in al groups were culled 2 hours post IV administration. At the time of euthanasia, whole blood, spleen, inguinal lymph nodes and femurs were collected from all mice. White Blood Cells (WBC) were obtained from EDTA treated whole blood, spleen, inguinal lymph nodes and bone marrow for flow cytometry analysis. In short, bone marrow (BM) was flushed from femurs, and spleens and lymph nodes were processed to single cell suspensions by passing them through a 70 μm filter. Red blood cells in blood, BM and spleen were lysed before isolated WBCs from all tissues were stained with different antibody panels to identify specific sub-populations of immune cells. The staining was performed in a 96-well plate format before samples were analysed using an ACEA Novocyte 3005 flow cytometer.

HeLa cells [7] = experiment: mRNA (eGFP) transfection with peptide dendrimers and DOTMA/DOPE in full growth medium; assay type: cell-based, human; settings: HeLa; full growth medium; DOTMA/DOPE w/w 10:1 to mRNA; relative to G1,2-RL, 3-LR
Method: FIG. 28. mRNA transfection of the peptide dendrimers with lipid system in vitro. […] The mRNA used expressed an eGFP reporter gene. Following a 24 hour transfection, the cells were harvested to assay the eGFP expression. The eGFP expression was normalised with the total amount of protein of each transfection. The gene expression level was calculated by normalising the transfection value of the G1,2-RL, 3-LR, DOTMA/DOPE & mRNA treated cells. 1st, 2nd and 3rd generation dendrimers with varying cores and 1st, 2nd, and 3rd generation peptide motifs can transfect cells with mRNA effectively under the tested conditions.
FIG. 29. mRNA transfection of the peptide dendrimers with lipid system in vitro. HeLa cells were transfected with mRNA alone or mRNA with peptide dendrimers and DOTMA/DOPE (w/w=10:1 to mRNA). The N:P ratio of G1,2-RL,3-LR was at 0.16:1 while the N:P ratios of all other dendrimers at 8:1. The mRNA used expressed an eGFP reporter gene. Following a 24 hour transfection, the cells were harvested to assay the eGFP expression. The eGFP expression was normalised with the total amount of protein of each transfection. The gene expression level was calculated by normalising the transfection value of the G1,2-RL, 3-LR, DOTMA/DOPE & mRNA treated cells. 1st, 2nd and 3rd generation dendrimers with varying cores and 1st, 2nd, and 3rd generation peptide motifs can transfect cells with mRNA effectively under the tested conditions.
The effect on the number of generations of dendrimers on mRNA delivery was studied by transfecting HeLa cells in full growth medium conditions.

Molecule: KLKLKGSC-NH2 [G1-KL, (KL)2KGSC-NH2]
- cell death (HeLa cells [1]): 40%

Molecule: Lipopolysaccharides
- TNF-alpha level ([2]; in vivo): up to 5000 μg/mL

Molecule: O=c1c(-c2ccc(O)cc2)coc2cc(O)cc(O)c12 [Genistein]
- inhibition of transfection [3]: around 50%

Molecule: ClC(Cl)(Cl)Cl [carbon tetrachloride]
- AST and ALT threshold levels in disease model of liver damage ([2]; Bonnet et al 2008): greater than 7000 U/L

Molecule: CC(=O)c1c(O)c(C)c(O)c(Cc2c(O)c3c(c(C(=O)/C=C/c4ccccc4)c2O)OC(C)(C)C=C3)c1O [Rottlerin]
- inhibition of transfection [3]: around 50%

Molecule: CC(C)C[C@H](NC(=O)[C@@H](N)CCCNC(=N)N)C(=O)NCCCC[C@H](NC(=O)[C@H](CC(C)C)NC(=O)[C@@H](N)CCCNC(=N)N)C(=O)NCC(=O)N[C@@H](CO)C(=O)N[C@@H](CS)C(N)=O [G1-RL, (RL)2KGSC-NH2] (HELM PEPTIDE1{R.L.K.G.S.C.[am]}|PEPTIDE2{R.L}$PEPTIDE1,PEPTIDE2,3:R3-2:R2$$$V2.0)
- cell death (HeLa cells [1]): 40%

- Polydispersity Index (PDI) ([5]; N:P 0.16:1): 0.168
- Zeta Potential ([5]; N:P 0.16:1): 43 mV
- Polydispersity Index (PDI) ([5]; N:P 8:1): 0.272
- Zeta Potential ([5]; N:P 8:1): 60 mV
- Hydrodynamic size ([5]; N:P 0.16:1): 121 nm
- Hydrodynamic size ([5]; N:P 8:1): 83 nm
Molecule: (LR)8(KLR)4(KLR)2KGSC-NH2 [G1,2,3-LR]
- luciferase expression in tissues, DNA delivery (mice tissue [4]): the most effective delivery to skeletal muscle

Molecule: (LR)8(KRL)4(KRL)2KGSCGAASSLNIA(Acp)-NH2 [NTX2]
- luciferase expression after DNA transfection (C2C12 cells): further increase transfection efficiency

Molecule: CN(C)CCCN1c2ccccc2Sc2ccc(Cl)cc21 [Chlorpromazine]
- inhibition of transfection [3]: 80%

Molecule: (LR)8(KRL)4(KRL)2KGSCGAASSLNIAXRXRRBRRXRRBRXB-NH2 [NTX1]
- luciferase expression in tissues, mRNA delivery (mice tissue [6]): improves efficiency of mRNA delivery to lung, spleen, and lymph nodes
- luciferase expression in tissues, mRNA delivery (mice tissue [6]; listed as NXT1): more effective than G1,2,3-RL and G1,2-RL,3-LR
- delivery of mRNA to immune cells (immune cells; blood, 2 hours post-injection): Delivery of mRNA to a wide range of immune cells present in the blood is possible
- uptake of mRNA in immune cells (immune cells; bone marrow, 2 hrs post-injection): mediated uptake of mRNA in immune cells present in the bone marrow
- mRNA transfection efficiency (eGFP), in words (HeLa cells [7]): more effectively than G1,2-RL, 3-RL
- Polydispersity Index (PDI) ([5]; N:P 0.16:1): 0.13
- Zeta Potential ([5]; N:P 0.16:1): 37 mV
- Hydrodynamic size ([5]; N:P 0.16:1): 128 nm
